ChEMBL document CHEMBL2062402, “Discovery of HDAC Inhibitors That Lack an Active Site Zn(2+)-Binding Functional Group” (ACS Med Chem Lett, 2012)
Where a SMILES comes first, the peptide text is derived from it. [ ]: non-standard residue; d: D form. β3hL = CC(C)C[C@H](N)CC(=O)O; Nva = CCC[C@H](N)C(=O)O

Columns and labels:
HL-60 = experiment: cells; assay type: functional; details: Homo sapiens, HL-60, 72 h
Description: Growth inhibition of human HL60 cells after 72 hrs by XTT assay

Jurkat = experiment: cells; assay type: functional; details: Homo sapiens, 72 h
Description: Growth inhibition of human Jurkat cells after 72 hrs by XTT assay

HeLa = experiment: cells; assay type: functional; details: Homo sapiens, 72 h
Description: Growth inhibition of human HeLa cells after 72 hrs by XTT assay

MCF7 = experiment: cells; assay type: functional; details: Homo sapiens, MCF7, 72 h
Description: Growth inhibition of human MCF7 cells after 72 hrs by XTT assay

in vitro = details: human, HEK293 cells
Description: Growth inhibition of human HEK293 cells after 72 hrs by XTT assay

[1] = biological target: T1, Histone deacetylase 3/Nuclear receptor corepressor 2 (HDAC3/NCoR2) (Homo sapiens) (UniProt O15379+Q9Y618); experiment: Inhibition of recombinant HDAC3/NCoR2 at 1 uM; assay type: protein-complex assay
Histone deacetylase 1 [2] = biological target: T2, Histone deacetylase 1 (Homo sapiens, UniProt Q13547); experiment: Inhibition of recombinant HDAC1 using Ac-Lys(Ac)-AMC as substrate after 30 mins by fluorescence analysis
Histone deacetylase 2 [3] = biological target: T3, Histone deacetylase 2 (Homo sapiens, UniProt Q92769); experiment: Inhibition of recombinant HDAC2 using Ac-Lys(Ac)-AMC as substrate after 30 mins by fluorescence analysis
[4] = biological target: T4, Histone deacetylase 3/Nuclear receptor corepressor 2 (HDAC3/NCoR2) (Homo sapiens, UniProt O15379); experiment: Inhibition of recombinant HDAC3/NCoR2 using Ac-Lys(Ac)-AMC as substrate after 30 mins by fluorescence analysis; assay type: protein-complex assay
[5] = biological target: T5, Protein deacetylase HDAC6 (Homo sapiens, UniProt Q9UBN7); experiment: Inhibition of recombinant HDAC6 using Ac-Lys(Ac)-AMC as substrate after 30 mins by fluorescence analysis
T5 sequence (Q9UBN7 whole entry): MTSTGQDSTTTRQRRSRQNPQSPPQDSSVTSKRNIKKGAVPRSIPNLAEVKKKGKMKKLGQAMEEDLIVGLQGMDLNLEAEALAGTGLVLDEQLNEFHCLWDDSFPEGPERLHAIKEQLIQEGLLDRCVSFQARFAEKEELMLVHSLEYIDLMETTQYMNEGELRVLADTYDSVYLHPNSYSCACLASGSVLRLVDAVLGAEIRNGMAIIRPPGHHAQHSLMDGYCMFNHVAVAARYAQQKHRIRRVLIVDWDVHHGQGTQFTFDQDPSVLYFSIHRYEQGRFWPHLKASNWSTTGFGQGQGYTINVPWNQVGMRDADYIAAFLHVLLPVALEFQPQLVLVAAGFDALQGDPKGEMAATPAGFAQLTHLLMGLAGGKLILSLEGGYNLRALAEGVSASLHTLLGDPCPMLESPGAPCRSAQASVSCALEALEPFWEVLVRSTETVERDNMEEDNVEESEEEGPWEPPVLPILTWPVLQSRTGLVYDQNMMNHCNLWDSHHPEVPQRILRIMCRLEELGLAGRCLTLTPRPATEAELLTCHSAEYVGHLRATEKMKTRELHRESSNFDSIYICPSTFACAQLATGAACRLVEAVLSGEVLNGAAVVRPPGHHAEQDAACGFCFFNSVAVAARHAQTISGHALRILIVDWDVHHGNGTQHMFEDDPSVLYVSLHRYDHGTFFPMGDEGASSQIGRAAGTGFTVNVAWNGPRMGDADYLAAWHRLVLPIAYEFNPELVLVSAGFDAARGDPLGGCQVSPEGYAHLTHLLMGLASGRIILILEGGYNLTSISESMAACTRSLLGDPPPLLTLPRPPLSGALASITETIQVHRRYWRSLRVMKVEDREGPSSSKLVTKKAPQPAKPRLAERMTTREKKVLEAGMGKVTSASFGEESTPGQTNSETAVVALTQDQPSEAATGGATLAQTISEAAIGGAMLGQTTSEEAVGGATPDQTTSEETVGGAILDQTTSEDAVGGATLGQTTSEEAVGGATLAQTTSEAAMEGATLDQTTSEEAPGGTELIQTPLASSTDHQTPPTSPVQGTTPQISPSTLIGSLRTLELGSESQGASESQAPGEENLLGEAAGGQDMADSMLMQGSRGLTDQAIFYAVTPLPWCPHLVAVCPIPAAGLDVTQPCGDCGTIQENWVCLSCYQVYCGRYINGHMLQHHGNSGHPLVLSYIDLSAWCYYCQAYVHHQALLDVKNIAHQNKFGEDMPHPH

Histone deacetylase 1 [6] = biological target: T2, Histone deacetylase 1; experiment: Ratio of IC50 for valproic acid to compound for recombinant HDAC1 using Ac-Lys(Ac)-AMC as substrate after 30 mins by fluorescence analysis
Histone deacetylase 2 [7] = biological target: T3, Histone deacetylase 2; experiment: Ratio of IC50 for valproic acid to compound for recombinant HDAC2 using Ac-Lys(Ac)-AMC as substrate after 30 mins by fluorescence analysis
[8] = biological target: T1, Histone deacetylase 3/Nuclear receptor corepressor 2 (HDAC3/NCoR2) (Homo sapiens); experiment: Ratio of IC50 for valproic acid to compound for recombinant HDAC3/NCoR2 using Ac-Lys(Ac)-AMC as substrate after 30 mins by fluorescence analysis; assay type: protein-complex assay
[9] = biological target: Histone deacetylase (Homo sapiens) (UniProt Q13547+O15379+Q9UBN7+Q92769+Q9UQL6+Q8WUI4+Q9BY41+Q96DB2+P56524+Q9UKV0+Q969S8); experiment: Inhibition of HDAC in human Jurkat cells assessed as increase in acetylated histone H3 after 24 hrs by Western blot analysis; assay type: cell-based
Histone deacetylase 1 [10] = biological target: T2, Histone deacetylase 1; experiment: Competitive inhibition of HDAC1 using Ac-Lys(Ac)-AMC as substrate by Lineweaver-Burk plot analysis
Histone deacetylase 2 [11] = biological target: T3, Histone deacetylase 2; experiment: Competitive inhibition of HDAC2 using Ac-Lys(Ac)-AMC as substrate by Lineweaver-Burk plot analysis
[12] = biological target: T4, Histone deacetylase 3/Nuclear receptor corepressor 2 (HDAC3/NCoR2); experiment: Competitive inhibition of HDAC3/NCoR2 using Ac-Lys(Ac)-AMC as substrate by Lineweaver-Burk plot analysis; assay type: protein-complex assay
[13] = biological target: T6, Protein deacetylase HDAC6 (Homo sapiens) (UniProt Q9UBN7); experiment: Inhibition of recombinant HDAC6 using Ac-Lys(Ac)-AMC as substrate at 20 uM after 30 mins by fluorescence analysis
T6 sequence (whole entry): T5 sequence (Q9UBN7 whole entry)

[14] = Ratio of IC50 for valproic acid to compound for recombinant using Ac-Lys(Ac)-AMC as substrate after 30 mins by fluorescence analysis; details: Homo sapiens
[15] = Growth inhibition of human HEK293 cells at 100 uM after 72 hrs by XTT assay; assay type: cell-based; details: read-out: GI

T4 sequence (O15379 whole entry): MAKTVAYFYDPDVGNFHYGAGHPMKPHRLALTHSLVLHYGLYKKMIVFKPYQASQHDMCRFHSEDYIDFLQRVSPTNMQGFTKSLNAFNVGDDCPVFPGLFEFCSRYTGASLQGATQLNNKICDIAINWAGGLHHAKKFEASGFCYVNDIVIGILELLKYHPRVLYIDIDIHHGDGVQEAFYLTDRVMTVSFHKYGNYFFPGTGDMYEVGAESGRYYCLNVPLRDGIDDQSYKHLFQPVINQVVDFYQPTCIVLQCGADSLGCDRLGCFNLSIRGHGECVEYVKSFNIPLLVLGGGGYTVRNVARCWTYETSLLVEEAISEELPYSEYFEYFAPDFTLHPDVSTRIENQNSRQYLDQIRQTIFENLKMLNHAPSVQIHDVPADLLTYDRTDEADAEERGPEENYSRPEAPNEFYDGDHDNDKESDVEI
T4 sequence (Q9Y618 whole entry, further chain): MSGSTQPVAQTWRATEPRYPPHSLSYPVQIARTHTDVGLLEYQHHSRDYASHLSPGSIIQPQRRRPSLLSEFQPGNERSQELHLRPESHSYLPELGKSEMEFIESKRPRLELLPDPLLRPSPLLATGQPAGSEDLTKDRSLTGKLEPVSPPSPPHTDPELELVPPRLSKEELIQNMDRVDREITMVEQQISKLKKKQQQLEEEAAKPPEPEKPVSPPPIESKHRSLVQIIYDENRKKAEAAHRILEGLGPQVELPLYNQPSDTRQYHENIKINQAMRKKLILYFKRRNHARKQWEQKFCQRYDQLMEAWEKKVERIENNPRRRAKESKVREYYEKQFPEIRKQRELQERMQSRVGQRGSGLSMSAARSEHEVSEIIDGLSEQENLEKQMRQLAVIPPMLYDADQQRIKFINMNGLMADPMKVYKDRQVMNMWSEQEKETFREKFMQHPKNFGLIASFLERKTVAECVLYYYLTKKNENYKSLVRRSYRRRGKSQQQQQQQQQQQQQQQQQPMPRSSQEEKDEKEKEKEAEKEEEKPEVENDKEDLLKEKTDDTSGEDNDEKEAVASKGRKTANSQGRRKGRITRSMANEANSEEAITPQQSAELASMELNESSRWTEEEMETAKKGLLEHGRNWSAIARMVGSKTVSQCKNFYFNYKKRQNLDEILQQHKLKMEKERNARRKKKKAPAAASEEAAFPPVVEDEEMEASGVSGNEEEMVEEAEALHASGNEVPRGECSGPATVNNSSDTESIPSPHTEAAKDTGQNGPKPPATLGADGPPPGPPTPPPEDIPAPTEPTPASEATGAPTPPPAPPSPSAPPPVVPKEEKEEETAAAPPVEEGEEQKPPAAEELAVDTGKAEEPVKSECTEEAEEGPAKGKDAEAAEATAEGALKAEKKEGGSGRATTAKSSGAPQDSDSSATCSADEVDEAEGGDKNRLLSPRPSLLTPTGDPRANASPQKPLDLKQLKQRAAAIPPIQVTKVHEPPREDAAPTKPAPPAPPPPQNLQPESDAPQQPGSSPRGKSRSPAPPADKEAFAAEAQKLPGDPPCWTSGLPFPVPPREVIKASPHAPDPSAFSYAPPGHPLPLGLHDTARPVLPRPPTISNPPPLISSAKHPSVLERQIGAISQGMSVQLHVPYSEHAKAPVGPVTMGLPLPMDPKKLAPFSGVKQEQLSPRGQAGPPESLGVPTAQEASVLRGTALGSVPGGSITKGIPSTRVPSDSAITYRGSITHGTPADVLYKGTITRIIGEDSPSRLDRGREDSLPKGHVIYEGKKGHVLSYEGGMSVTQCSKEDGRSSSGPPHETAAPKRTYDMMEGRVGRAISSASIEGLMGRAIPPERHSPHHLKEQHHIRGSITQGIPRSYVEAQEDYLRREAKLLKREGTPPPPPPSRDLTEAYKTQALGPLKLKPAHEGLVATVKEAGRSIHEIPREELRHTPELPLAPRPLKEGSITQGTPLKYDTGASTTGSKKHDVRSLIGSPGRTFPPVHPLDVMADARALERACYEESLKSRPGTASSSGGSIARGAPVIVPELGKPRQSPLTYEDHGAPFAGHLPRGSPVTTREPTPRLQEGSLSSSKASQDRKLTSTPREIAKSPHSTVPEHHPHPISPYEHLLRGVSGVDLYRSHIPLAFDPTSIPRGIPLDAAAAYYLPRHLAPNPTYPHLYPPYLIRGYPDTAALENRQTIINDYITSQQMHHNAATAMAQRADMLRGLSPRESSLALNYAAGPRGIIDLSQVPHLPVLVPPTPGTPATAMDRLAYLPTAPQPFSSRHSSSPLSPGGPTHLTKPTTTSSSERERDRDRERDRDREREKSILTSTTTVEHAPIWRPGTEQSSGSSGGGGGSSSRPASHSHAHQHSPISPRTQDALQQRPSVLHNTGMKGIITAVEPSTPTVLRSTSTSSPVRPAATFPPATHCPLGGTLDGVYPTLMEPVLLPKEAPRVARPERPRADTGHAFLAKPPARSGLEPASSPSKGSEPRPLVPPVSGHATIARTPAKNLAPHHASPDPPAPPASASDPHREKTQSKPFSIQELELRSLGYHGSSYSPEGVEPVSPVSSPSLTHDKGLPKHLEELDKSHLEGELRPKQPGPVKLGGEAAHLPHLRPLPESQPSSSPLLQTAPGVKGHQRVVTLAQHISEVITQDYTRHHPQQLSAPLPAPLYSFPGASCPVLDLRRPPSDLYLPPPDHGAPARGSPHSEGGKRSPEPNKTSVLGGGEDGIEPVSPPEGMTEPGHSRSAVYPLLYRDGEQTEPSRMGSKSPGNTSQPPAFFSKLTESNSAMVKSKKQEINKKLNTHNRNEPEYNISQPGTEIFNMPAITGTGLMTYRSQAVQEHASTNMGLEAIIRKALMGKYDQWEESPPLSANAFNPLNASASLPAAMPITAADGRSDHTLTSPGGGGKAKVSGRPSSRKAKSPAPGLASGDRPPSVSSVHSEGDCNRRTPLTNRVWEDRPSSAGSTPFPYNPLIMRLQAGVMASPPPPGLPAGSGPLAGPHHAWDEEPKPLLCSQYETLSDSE
T2 sequence (Q13547 whole entry): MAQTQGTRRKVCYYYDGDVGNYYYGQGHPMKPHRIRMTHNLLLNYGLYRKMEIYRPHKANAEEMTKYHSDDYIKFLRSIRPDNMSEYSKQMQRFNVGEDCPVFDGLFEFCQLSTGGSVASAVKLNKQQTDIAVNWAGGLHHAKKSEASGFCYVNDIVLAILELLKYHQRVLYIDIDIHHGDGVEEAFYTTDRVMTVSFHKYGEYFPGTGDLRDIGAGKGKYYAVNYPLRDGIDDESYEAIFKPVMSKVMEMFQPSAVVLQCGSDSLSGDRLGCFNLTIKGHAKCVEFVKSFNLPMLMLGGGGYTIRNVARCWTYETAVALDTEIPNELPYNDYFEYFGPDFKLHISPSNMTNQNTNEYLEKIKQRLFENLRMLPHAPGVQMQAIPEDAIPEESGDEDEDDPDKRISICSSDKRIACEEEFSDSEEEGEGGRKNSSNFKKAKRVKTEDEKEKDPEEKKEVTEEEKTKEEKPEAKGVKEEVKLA
T3 sequence (Q92769 whole entry): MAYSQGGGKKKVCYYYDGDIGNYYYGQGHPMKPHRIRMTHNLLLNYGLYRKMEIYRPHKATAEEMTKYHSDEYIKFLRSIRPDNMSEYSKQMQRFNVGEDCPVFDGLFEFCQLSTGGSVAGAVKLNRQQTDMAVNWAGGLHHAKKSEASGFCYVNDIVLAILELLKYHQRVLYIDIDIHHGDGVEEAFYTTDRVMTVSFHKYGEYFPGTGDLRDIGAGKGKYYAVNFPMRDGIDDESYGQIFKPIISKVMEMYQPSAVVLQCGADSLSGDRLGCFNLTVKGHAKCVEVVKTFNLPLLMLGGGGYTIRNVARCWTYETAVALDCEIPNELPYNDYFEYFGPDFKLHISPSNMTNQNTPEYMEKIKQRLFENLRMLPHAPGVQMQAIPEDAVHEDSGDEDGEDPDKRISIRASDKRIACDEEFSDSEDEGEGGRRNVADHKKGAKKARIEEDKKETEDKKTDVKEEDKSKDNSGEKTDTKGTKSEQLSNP

| GI50 (HL-60) | GI50 (Jurkat) | GI50 (HeLa) | GI50 (MCF7) | GI50 at 72 h (in vitro) | inhibition [1] | IC50 (Histone deacetylase 1 [2]) | IC50 (Histone deacetylase 2 [3]) | IC50 [4] | IC50 [5] | Ratio IC50 (Histone deacetylase 1 [6]) | Ratio IC50 (Histone deacetylase 2 [7]) | Ratio IC50 [8] | inhibition [9] | Ki (Histone deacetylase 1 [10]) | Ki (Histone deacetylase 2 [11]) | Ki [12] | inhibition [13] | Ratio IC50 [14] | SMILES | inhibition at 72 h, 100 µM [15] |
| --- | --- | --- | --- | --- | --- | --- | --- | --- | --- | --- | --- | --- | --- | --- | --- | --- | --- | --- | --- | --- |
| 2800 nM | 8100 nM | 62000 nM | 47000 nM | 100000 nM | 60% | 680 nM | 1400 nM | 800 nM | > 20000 nM | 40 | 40 | 200 | Dose-dependent effect | 49 nM | 33 nM | 37 nM | 46% | 40 | CCC[C@@H]1NC(=O)[C@H](C)NC(=O)C[C@H](CC(C)C)NC(=O)[C@H](Cc2cn(CN(C)C)c3ccccc23)NC1=O |  |
| 8200 nM | 12000 nM | 81000 nM | 40000 nM | > 100000 nM |  | 980 nM | 1500 nM | 1400 nM | > 20000 nM |  |  |  |  |  |  |  | 37% |  | CCC[C@@H]1NC(=O)[C@H](C)NC(=O)C[C@H](CC(C)C)NC(=O)[C@H](Cc2c[nH]c3ccccc23)NC1=O (cyclo(A[Nva]W[β3hL])) | 33% |

| SMILES | GI50 (HL-60) | GI50 (Jurkat) | GI50 (HeLa) | GI50 (MCF7) | GI50 at 72 h (in vitro) | inhibition [1] | IC50 (Histone deacetylase 1 [2]) | IC50 (Histone deacetylase 2 [3]) | IC50 [4] | IC50 [5] | Ratio IC50 (Histone deacetylase 1 [6]) | Ratio IC50 (Histone deacetylase 2 [7]) | Ratio IC50 [8] | inhibition [9] | Ki (Histone deacetylase 1 [10]) | Ki (Histone deacetylase 2 [11]) | Ki [12] | inhibition [13] | Ratio IC50 [14] | inhibition at 72 h, 100 µM [15] |
| --- | --- | --- | --- | --- | --- | --- | --- | --- | --- | --- | --- | --- | --- | --- | --- | --- | --- | --- | --- | --- |
| CCC(=O)CCCCC[C@@H]1NC(=O)[C@H]2CCCCN2C(=O)[C@H]([C@@H](C)CC)NC(=O)[C@H](Cc2cn(OC)c3ccccc23)NC1=O [APICIDIN] | 280 nM | 830 nM | 1400 nM | 6800 nM | 11000 nM |  |  |  |  |  |  |  |  |  |  |  |  |  |  |  |
